From patent US20240317758A1 (Halia Therapeutics, Inc., priority 2021, published 2024) come the findings set out here.

For assay [1], the target named is T1, full-length recombinant human NEK7 (Homo sapiens, UniProt Q8TDX7).
T1 construct: full-length recombinant human NEK7; GST (N); purchased SignalChem NO9-10G; host or cells: Sf9 insect cells (baculovirus)
The experiment in a line: NEK7 enzymatic assay. The class given is biochemical. As to conditions: recombinant human NEK7, casein substrate, radiolabelled ATP. The procedure, abridged:
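Full-length GST-tagged human NEK7 from Sf9 cells (assay concentration 70 nM) was used with casein (assay concentration 20 μM) in Hepes pH 7.5 buffer, 1% DMSO, and compound (3-fold dilutions, 10 μM to 0.5 nM) was preincubated 20 min at room temperature. Radiolabelled ATP was added for 2 h, phosphorylation was read on P81 paper, and IC50 was fitted from % activity remaining versus vehicle.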

A further assay relates to IL-1β release. The assay can be described thus: IL-1β release assay (THP-1 cells, PMA, LPS, nigericin). As to conditions: Homo sapiens, LPS 250 ng/mL, nigericin 20 μM, cleaved IL-1β in media. The class given is cell-based. Here is the method: Approximately 1.5 million THP-1 cells were plated in each well of a 6-well TC plate and incubated with 40 nM PMA in RPMI (10% FBS, 1% Penstrep) for 24 hours. The media was then removed and cells were rested in RPMI (10% FBS, 1% Penstrep) for 24 hours after which time the media was removed and cells were pre-treated for 2 hours with various concentrations of compounds of interest (typically serial 3-fold dilution in RPMI+5% FBS, concentrations ranging from 1 μM to 0.5 nM) in RPMI (5% FBS). The media was again removed and cells were incubated with 250 ng/mL LPS and compounds of interest (concentrations as above) in RMPI (5% FBS) for 2 hours. The media was removed for a last time and cells were incubated with 20 μM nigericin and compounds of interest (concentrations as above) in Opti-MEM for 30 minutes. Cell media was then collected and the amount of cleaved IL-1β was determined using a JESS instrument (Protein Simple) and standard protocols. Cleaved Il-1β antibody was obtained from Cell Signaling (catalogue #83186S) and was used at 1:20 dilution in antibody diluent 2. Protein Simple 1× anti-Rabbit HRP secondary antibody was used along with Protein Simple luminol and peroxide for chemiluminescent detection. Primary antibody incubation time was increased from 30 minutes to 60 minutes.

A value given as a limit tells only on which side of the number the result lay.

T1 sequence (Q8TDX7 whole entry): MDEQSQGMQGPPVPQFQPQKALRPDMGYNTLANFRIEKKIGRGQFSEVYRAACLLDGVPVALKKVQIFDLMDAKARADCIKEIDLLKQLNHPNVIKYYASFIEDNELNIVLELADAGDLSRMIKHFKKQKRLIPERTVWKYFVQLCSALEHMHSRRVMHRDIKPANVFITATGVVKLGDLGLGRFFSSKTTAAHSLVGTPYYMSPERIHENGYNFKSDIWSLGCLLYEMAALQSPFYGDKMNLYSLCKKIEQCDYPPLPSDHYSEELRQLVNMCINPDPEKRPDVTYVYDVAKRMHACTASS

Broadly, the IC50 is the concentration that gives 50% inhibition. For the compound `CN1CCN(Cc2cc(NC(=O)Nc3ccc(-c4nn(C5CC5)c5ncnc(N)c45)cc3F)cc(C(F)(F)F)c2)CC1` [Example I-87, 1-(4-(4-amino-1-cyclopropyl-1H-pyrazolo[3,4-d]pyrimidin-3-yl)-2-fluorophenyl)-3-(3-((4-methylpiperazin-1-yl)methyl)-5-(trifluoromethyl)phenyl)urea], the IC50 was less than 100 nM in assay [1] and greater than 1000 nM in the assay on IL-1β release.
For `CN1CCN(C2CC(F)(F)c3cc(NC(=O)Nc4ccc(-c5nn(C6CC6)c6ncnc(N)c56)cc4F)ccc32)CC1` (centres unmarked) [Example I-94, 1-(4-(4-amino-1-cyclopropyl-1H-pyrazolo[3,4-d]pyrimidin-3-yl)-2-fluorophenyl)-3-(3,3-difluoro-1-(4-methylpiperazin-1-yl)-2,3-dihydro-1H-inden-5-yl)urea], the IC50 in assay [1] is less than 100 nM; in the assay with IL-1β release, 50 to 250 nM.
Consider `CS(=O)(=O)N1CCN(Cc2ccc(NC(=O)Nc3ccc(-c4cn(C5CC5)c5ncnc(N)c45)cc3F)cc2C(F)(F)F)CC1` [Example I-98, 1-(4-(4-amino-7-cyclopropyl-7H-pyrrolo[2,3-d]pyrimidin-5-yl)-2-fluorophenyl)-3-(4-((4-(methylsulfonyl)piperazin-1-yl)methyl)-3-(trifluoromethyl)phenyl)urea], for which the IC50 in assay [1] was 500 to 2000 nM; with IL-1β release, greater than 1000 nM.
For `CS(=O)(=O)CCN1CCN(Cc2ccc(NC(=O)Nc3ccc(-c4cn(C5CC5)c5ncnc(N)c45)cc3F)cc2C(F)(F)F)CC1` [Example I-99, 1-(4-(4-amino-7-cyclopropyl-7H-pyrrolo[2,3-d]pyrimidin-5-yl)-2-fluorophenyl)-3-(4-((4-(2-(methylsulfonyl)ethyl)piperazin-1-yl)methyl)-3-(trifluoromethyl)phenyl)urea], the IC50 in assay [1] is less than 100 nM; in the assay on IL-1β release, 50 to 250 nM.
With `Nc1ncnc2c1c(-c1ccc(NC(=O)Nc3ccc(CN4CCN(CCS(=O)(=O)O)CC4)c(C(F)(F)F)c3)c(F)c1)cn2C1CC1` [Example I-100, 2-(4-(4-(3-(4-(4-amino-7-cyclopropyl-7H-pyrrolo[2,3-d]pyrimidin-5-yl)-2-fluorophenyl)ureido)-2-(trifluoromethyl)benzyl)piperazin-1-yl)ethane-1-sulfonic acid], the half-maximal inhibitory concentration (IC50) in assay [1] was less than 100 nM; with IL-1β release it was greater than 1000 nM.
Regarding `CN1CCN(Cc2ccc(NC(=O)Nc3ccc(-c4cn(C5CCN(S(C)(=O)=O)CC5)c5ncnc(N)c45)cc3F)cc2C(F)(F)F)CC1` [Example I-101, 1-(4-(4-amino-7-(1-(methylsulfonyl)piperidin-4-yl)-7H-pyrrolo[2,3-d]pyrimidin-5-yl)-2-fluorophenyl)-3-(4-((4-methylpiperazin-1-yl)methyl)-3-(trifluoromethyl)phenyl)urea], the values for the IC50 (in assay [1]; with IL-1β release) were less than 100 nM and 50 to 250 nM, respectively.
`CN1CCN(Cc2ccc(NC(=O)Nc3ccc(-c4cn(C5CCN(S(=O)(=O)C6CC6)CC5)c5ncnc(N)c45)cc3F)cc2C(F)(F)F)CC1` [Example I-102, 1-(4-(4-amino-7-(1-(cyclopropylsulfonyl)piperidin-4-yl)-7H-pyrrolo[2,3-d]pyrimidin-5-yl)-2-fluorophenyl)-3-(4-((4-methylpiperazin-1-yl)methyl)-3-(trifluoromethyl)phenyl)urea]: the IC50 was less than 100 nM in assay [1] and 50 to 250 nM in the assay with IL-1β release.
